What all share (assay type): cell-based
For experiment [1], the system named is SDMA (PRMT5 activity) in HAP1 MTAP-intact cell line. Description: SDMA in-cell western assay, HAP1 MTAP-intact. The settings on record: Homo sapiens, HAP1, 24 h, SDMA in-cell western, HAP1 MTAP-intact cells, 24 hours compound incubation.
Experiment [2] has as its system SDMA (PRMT5 activity) in HAP1 MTAP-deleted cell line. Description: SDMA in-cell western assay, HAP1 MTAP-deleted. The settings on record: for IC50 / IC90: Homo sapiens, SDMA in-cell western, HAP1 MTAP-deleted cells, 24 hours compound incubation; for Hap1 MTAP intact/deleted ratio: ratio of SDMA IC50 in HAP1 MTAP-intact to HAP1 MTAP-deleted cell line.
The test system of experiment [3] is HAP1 MTAP-deleted cell line. Put plainly: Viability assay (CellTiter-Glo), HAP1 MTAP-deleted. As to conditions: Homo sapiens, 168 h, HAP1 MTAP-deleted cells, 7 days. The method, boiled down: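 HAP1 MTAP-deleted and MTAP-intact cells seeded, then dosed next day (n=3, 0.2% DMSO) and grown 7 days. Viability by CellTiter-Glo luminescence, expressed as % of DMSO control per cell line.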

Bounds are passed on as bounds.

`CCc1cc(NC(=O)C(=O)N2C[C@@H](C)CC[C@@H]2c2ccc3sc([C@H]4C[C@@H](N(C)C)C4)nc3c2)cnc1N` [Compound 40, N-(6-amino-5-ethyl-3-pyridyl)-2-oxo-2-[(2R,5S)-2-[2-[3-(dimethylamino)cyclobutyl]-1,3-benzothiazol-5-yl]-5-methyl-1-piperidyl]acetamide]: the IC50 in experiment [1] is over 0.05 µM. For the same molecule, in experiment [2], the 50% inhibitory concentration (IC50) is under 0.005 µM, the IC90 was under 0.075 µM and the “Hap1 MTAP intact/deleted ratio” value is “A (“A” indicates an IC50 ratio greater than or equal to 30 fold)”. Also, in experiment [3], the IC50 was under 0.1 µM.

As for `COc1ncc(NC(=O)C(=O)N2C[C@@H](C)CC[C@@H]2c2ccc3sc([C@H]4C[C@@H]5CN(C)C[C@@H]5C4)nc3c2)cc1C(N)=O` (single isomer, unassigned) [Compound 67], the concentration for half-maximal inhibition (IC50) is over 0.05 µM in experiment [1], under 0.005 µM in experiment [2] and under 0.1 µM in experiment [3]. In experiment [2], this molecule came in with a concentration for an effect of 90% (IC90) of under 0.075 µM. The “Hap1 MTAP intact/deleted ratio” value in experiment [2] is given as “A (“A” indicates an IC50 ratio greater than or equal to 30 fold)”.

In general, IC50 refers to the concentration that gives 50% inhibition. A higher IC50 goes with lower potency. The term IC90 denotes the concentration needed for an effect of 90%.

Source of the values: patent US20250171432A1, “COMPOUNDS AND METHODS OF USE” (Tango Therapeutics, Inc., priority 2022, published 2025).
